In patent US8481524B2, “c-MET protein kinase inhibitors” (Vertex Pharmaceuticals Incorporated, priority 2007, dated 2013):
Each block holds one molecule with its values, some of them ahead of it.

Tested on: c-Met in Snu5 gastric carcinoma cells
Test: Inhibition of c-Met activity in Snu5 gastric carcinoma cells (Snu5-AP1-Luc-Pest luciferase signal)
Assay type: cell-based, human
Conditions: for IC50: Homo sapiens, SNU-5, Snu5-AP1-Luc-Pest cells, 6 hours, Steady Glo luminescence; for activity compared with corresponding analog wherein R5 is hydrogen: Snu5 gastric carcinoma cell assay, comparison of IC50 values
Excerpt: Compounds of the invention were also screened for their ability to inhibit the Luciferase-induced signal in an engineered Snu5 cell line. Snu5 [obtained from American Type Culture Collection (Catalog number CRL-5973)] is a human gastric carcinoma known to overexpress c-Met, which is constitutively active. The cell line was transduced with the retrovirus, pCLPCX, which contains a genetic construct consisting of 6×AP1 promoter response elements and a luciferase gene having a C-terminal PEST sequence (proteolytic signal from mouse ornithine decarboxylase, which reduces the half-life of the luciferase). The constitutively active cMet activates cellular pathways (principally MAP kinase), resulting in AP-1-induced transcription of luciferase-PEST and translation into the final product, the activity of which is quantifiable as a chemiluminescent readout upon the addition of luciferin (Steady-Glo from Promega.). Residual luminescence is strongly correlated to the inhibition of c-Met. A stable cell line was obtained by selecting the new cell line (Snu5-AP1-Luc-Pest) with puromycin. The cells were grown in complete media [Iscove's media (Invitrogen) containing 10% fetal bovine serum (FBS, Hyclone) and penicillin/gentamycin (Invitrogen)]. Compounds of the invention were dissolved in DMSO to make 10 mM initial stock solutions. Serial dilutions in DMSO were then made and transferred to complete medium to make a 10× solution. The Snu5-AP1-Luc-Pest cells were counted and diluted to 200,000-cells/mL solution. The cells (90 μL) were added to each well in a 96-well black with clear bottom plate (Costar). Then 10 μL of the 10× compound solution was added to the cells in triplicate. The plates were incubated in a 37° C./5% CO2 incubator. After 6 hours, 50 μL of the Steady Glo reagent (Promega) was added to each well and placed on a plate shaker for 5 minutes to ensure that the cells were completely lysed. The plate was read on a 1450 Microbeta Liquid Scintillation and Luminescence Counter (Perkin-Elmer). The IC50s were calculated using a 4-parameter fit using the graphing software Prism (GraphPad).

IC50: ≤ 100 nM
SMILES: Cc1ccc(-n2nnnc2-c2cc(-c3cnn([C@H]4CCCNC4)c3)cnc2N)c(F)c1F [Compound 5]
activity compared with corresponding analog wherein R5 is hydrogen: more active

IC50: ≤ 100 nM
SMILES: Cc1ccc(-n2nnnc2-c2cc(-c3cc4c(s3)CCNC(C)C4)cnc2N)c(F)c1F (stereo not shown) [Compound 28]
activity compared with corresponding analog wherein R5 is hydrogen: more active

Second part, the molecule before the results:

SMILES: Cc1ccc(-n2nnnc2-c2cc(-c3cnn(C4CCNCC4)c3)cnc2N)c(Cl)c1 [Compound 38]
IC50: 100 to 1000 nM

SMILES: Cc1ccc(-n2nnnc2-c2cc(-c3cnn(C4CCNCC4)c3)cnc2N)cc1F [Compound 43]
IC50: 100 to 1000 nM

SMILES: Cc1ccc(-n2nnnc2-c2cc(-c3cn(C4CCCNCC4)nc3C)cnc2N)c(F)c1F (stereo not shown) [Compound 46]
IC50: ≤ 100 nM
